The values that follow are results of earlier work, collected in patent US20070237815A1 (priority 2006, published 2007).

The conditions of the data set: in the elderly.

As to `NS(=O)(=O)c1cc(C2(O)NC(=O)c3ccccc32)ccc1Cl` (stereo not shown) [chlorthalidone], the half-life entry was “approximately 72 hours”.
